The structures appear in SMILES notation. “And” between values parts separate entries of the source, which are not always exact repeats. Equal values may be shown once.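 Tested at 5 concentrations; 48 h exposure; 96-well plates; endpoints linearly interpolated, else capped at highest concentration. GI50 marks 50% less growth. TGI marks complete inhibition of growth.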

The results in this text go back to PubChem BioAssay (NCI).

Test in all cases: NCI tumour cell line growth inhibition, 48 h
For assay [1], the system named is OVCAR-4 ovarian.
Assay [2] concerns NCI/ADR-RES ovarian.
Assay [3] concerns A549 NSCLC.
For assay [4], the system named is KM12 colon.
Assay [5] concerns U251 CNS.
Assay [6] deals with 786-0 renal.
Assay [7] deals with CAKI-1 renal.
Assay [8] deals with MDA-MB-435.
Assay [9] has as its system K-562 leukemia.
Assay [10] relates to SF-295 CNS.

For the compound `CN(CC(=O)Nc1nc2ccccc2[nH]1)S(=O)(=O)c1ccc(Cl)cc1`, the GI50 in assay [1], in assay [2], in assay [3], in [4], in assay [5] and in [6] was more than 100 µM in each case. The GI50 in [7], in assay [8] and in assay [9] was more than 100 µM throughout. Besides, the TGI in [1], in [2], in [3], in [4], in assay [5] and in [6] was more than 100 µM each time. In addition, the TGI in [7], in assay [8] and in [9] was more than 100 µM in each case.

Consider `CCOC(=O)C1=C(C)N(Cc2ccc(Cl)cc2Cl)C2(O)C=CC(=O)C3=C(O)c4ccccc4C(=O)C312` (stereo not drawn), for which the GI50 in assay [1] is 11.5 µM; in [2], 0.888 µM; in [3], 9.35 µM; in assay [4] it was 4.02 µM; in assay [10] it was 3.07 µM; in [5] it was 3.53 µM. The GI50 is 3.54 µM in assay [6], 3.31 µM in assay [7], 3.87 µM in assay [8] and 4.85 µM in assay [9]. The TGI was more than 100 µM in assay [1]; 10.3 µM in assay [2]; more than 100 µM in assay [3]; 16.8 µM in [4]; 14.9 µM in assay [10]; 15.8 µM in assay [5]. Also, the TGI in assay [6] is 15.2 µM; in [7] it was 15 µM; in assay [8], 13.4 µM; in assay [9] it was more than 100 µM.

For `O=C(Nc1cccc(Cl)c1)c1cccc(NC2=C(Cl)C(=O)N(Cc3ccccc3)C2=O)c1`, the GI50 is 68.5 µM in assay [1]; 89.8 µM in assay [2]; more than 100 µM in assay [3]; 28.2 µM in assay [4]; 44.1 µM in assay [10]; 43.1 µM in [5]. Moreover, the GI50 in [6] is 35.8 µM; in assay [7], 15 µM; in assay [8], 25.9 µM; in assay [9] it was 0.662 µM. For the same compound, the TGI is more than 100 µM in assay [1]; more than 100 µM in assay [2]; more than 100 µM in assay [3]; 80.4 µM in assay [4]; more than 100 µM in assay [10]; more than 100 µM in [5]. Besides, the TGI was more than 100 µM in assay [6], 49.1 µM in [7], 91.3 µM in assay [8] and 35.5 µM in assay [9].

For `O=C(/C=C/C12c3ccccc3C(c3ccccc31)C1C(=O)NC(=O)C12)c1ccc(F)cc1` (stereo not drawn), the GI50 in [1] was 3.46 µM; in [2] it was 1.87 µM; in [3], 2.39 µM; in [4] it was 1.78 µM; in [10], 2.01 µM; in assay [5] it was 1.63 µM. Also, the GI50 was 1.79 µM in assay [6], 1.87 µM in assay [7], 2.44 µM in assay [8] and 1.42 µM in assay [9]. Moreover, the TGI in [1] amounted to 13.2 µM; in [2] it was 4.03 µM; in assay [3], 7.01 µM; in assay [4], 3.43 µM; in assay [10], 4.24 µM; in assay [5], 3.07 µM. Besides, the TGI in assay [6] was found to be 3.35 µM; in [7], 4.37 µM; in [8] it was 6.41 µM; in assay [9], 4.75 µM.

Take `C/C(=N\NC(=S)SCc1ccccc1)c1ccccn1`: the TGI was 1.52 µM in assay [1]; less than 0.0332 µM in [2]; 20.5 µM in assay [3]; 16.1 µM in [4]; 9.26 µM in assay [10]; 13.3 µM in assay [5]. For the same compound, the TGI in assay [6] stood at 10.2 µM; in assay [7] it was 4.93 µM; in assay [8], 18.3 µM; in assay [9], 2.95 µM.

Consider `C/C(=C\c1cc(C(F)(F)F)n(-c2ccc(N)cc2)n1)[C@@H]1C[C@@H]2O[C@]2(C)CCC[C@H](C)[C@H](O)[C@@H](C)C(=O)C(C)(C)[C@@H](O)CC(=O)O1`, for which the GI50 in [1] was 2.19 µM; in assay [2], 0.164 µM; in assay [3] it was 0.0489 µM; in assay [4] it was 0.00522 µM; in [10], 0.0369 µM; in assay [5] it was 0.0477 µM. Besides, the GI50 in assay [6] is 0.0614 µM; in assay [7] it was 0.221 µM; in [8], 0.00227 µM; in [9], 0.0203 µM. The TGI in [1] is more than 11.1 µM; in assay [2], more than 8.45 µM; in assay [3], more than 11.1 µM; in assay [4] it was more than 11.1 µM; in assay [10], 1.39 µM; in assay [5] it was more than 11.1 µM. Moreover, the TGI in [6] is more than 11.1 µM; in assay [7], more than 11.1 µM; in [8] it was 0.00567 µM; in assay [9], more than 11.1 µM.

`O=C1C2CCN(CC2)C1(CO)CO`: the TGI in assay [1] was 43 µM; in [2] it was 60 µM; in assay [3], more than 100 µM; in [4], more than 93.2 µM; in assay [10], more than 100 µM; in [5] it was more than 75.5 µM. Besides, the TGI in [6] is 44 µM; in [7], 40 µM; in assay [8], more than 100 µM; in assay [9], 54.5 µM.

With `COc1cc2nccc(Oc3ccc(NC(=O)Nc4cc(C)on4)c(Cl)c3)c2cc1OC`, the GI50 is 2.34 µM and 4.13 µM in assay [1]; 3.08 µM and 3.53 µM in assay [2]; 3.15 µM and 4.31 µM in assay [3]; 0.178 µM and 0.25 µM in assay [4]; 2.08 µM and 3.08 µM in [10]; 4.68 µM and 8.17 µM in assay [5]. For the same compound, the GI50 in [6] is 3.43 µM and 4.11 µM; in [7] it was 2.58 µM and 2.25 µM; in assay [8], 2.74 µM and 2.98 µM; in [9] it was 0.0349 µM and 0.0609 µM. Moreover, the TGI is more than 65.2 µM in [1]; more than 100 µM in assay [2]; 19.1 µM and > 10 µM in [3]; more than 66.6 µM in assay [4]; 14 µM and > 10 µM in [10]; more than 100 µM in assay [5]. Also, the TGI is 23.3 µM and > 10 µM in assay [6]; 7.67 µM and > 10 µM in assay [7]; more than 59.6 µM in assay [8]; more than 100 µM in [9].
